Reference: patent US20230190927A1, “ENPP1 INHIBITORS AND METHODS OF MODULATING IMMUNE RESPONSE” (Angarus Therapeutics, Inc., priority 2020, published 2023)

Columns and labels:
[1] = system: 4T1 tumor; assay: Tumor-associated dendritic cells in mouse 4T1 tumor model (FACS); conditions: intratumoral 100 μL of 1 mM compound 1
Protocol: Seven- to nine-week-old female Balb/c mice (Jackson Laboratories) were inoculated with 1×10^6 4 T1-luciferase tumor cells suspended in 50 μL of PBS into the mammary fat pad. […] Anaesthetized animals were shielded with a 3.2 mm lead shield with a 15×20 mm aperture where the tumor was placed. […] On the next day, the tumor was extracted and incubated in RPMI+ 10% FBS with 20 μg/mL DNase I type IV (Sigma-Aldrich) and 1 mg/mL Collagenase from Clostridium histolyticum (Sigma-Aldrich) at 37° C. for 30 min. […] Cells were stained with Live/Dead fixable near-IR dead cell staining kit (Thermo Fisher Scientific), Fc-blocked for 10 min using TruStain fcX and subsequently antibody-stained with CD11c, CD45, and I-A/I-E (all Biolegend). Cells were analyzed using an SH800S cell sorter (Sony) or an LSR II (BD Biosciences).
Mean±SEM (n=2). **P=0.004 (Student's t test).

[2] = system: human CD14+ monocytes
Protocol: Primary human peripheral blood mononucleocyte cells (PBMCs) were isolated by subjecting enriched buffy coat from whole blood to a Percoll density gradient. CD14^+ monocytes were isolated using CD14^+ MicroBeads (Miltenyi). CD14^+ monocytes were cultured in RMPI supplemented with 2% human serum and 100 U/mL penicillin-streptomycin. […] 24-26 hours following supernatant transfer, total RNA was extracted using Trizol (Thermo Fisher Scientific) and reverse transcribed with Maxima H Minus Reverse Transcriptase (Thermo Fisher Scientific). Real-time RT-PCR was performed in duplicate with AccuPower 2X Greenstar qPCR Master Mix (Bioneer) on a 7900HT Fast Real-Time PCR System (Applied Biosystems). Data were normalized to CD14 expression for each sample. Fold induction was calculated using ΔΔCt.
Supernatant from these cells was transferred to primary CD14^+ human PBMCs. IFNB1 mRNA levels were normalized to CD14 and the fold induction was calculated relative to untreated CD14^+ cells.

[3] = biological target: T1, purified recombinant mouse ENPP1 (Mus musculus, UniProt P06802); assay: ENPP1 activity assay using TMP-pNP as a substrate; type: biochemical; conditions: TMP-pNP 2 μM, mouse ENPP1 0.5 nM, pH 7.5, room temperature
T1 sequence (P06802 1-906): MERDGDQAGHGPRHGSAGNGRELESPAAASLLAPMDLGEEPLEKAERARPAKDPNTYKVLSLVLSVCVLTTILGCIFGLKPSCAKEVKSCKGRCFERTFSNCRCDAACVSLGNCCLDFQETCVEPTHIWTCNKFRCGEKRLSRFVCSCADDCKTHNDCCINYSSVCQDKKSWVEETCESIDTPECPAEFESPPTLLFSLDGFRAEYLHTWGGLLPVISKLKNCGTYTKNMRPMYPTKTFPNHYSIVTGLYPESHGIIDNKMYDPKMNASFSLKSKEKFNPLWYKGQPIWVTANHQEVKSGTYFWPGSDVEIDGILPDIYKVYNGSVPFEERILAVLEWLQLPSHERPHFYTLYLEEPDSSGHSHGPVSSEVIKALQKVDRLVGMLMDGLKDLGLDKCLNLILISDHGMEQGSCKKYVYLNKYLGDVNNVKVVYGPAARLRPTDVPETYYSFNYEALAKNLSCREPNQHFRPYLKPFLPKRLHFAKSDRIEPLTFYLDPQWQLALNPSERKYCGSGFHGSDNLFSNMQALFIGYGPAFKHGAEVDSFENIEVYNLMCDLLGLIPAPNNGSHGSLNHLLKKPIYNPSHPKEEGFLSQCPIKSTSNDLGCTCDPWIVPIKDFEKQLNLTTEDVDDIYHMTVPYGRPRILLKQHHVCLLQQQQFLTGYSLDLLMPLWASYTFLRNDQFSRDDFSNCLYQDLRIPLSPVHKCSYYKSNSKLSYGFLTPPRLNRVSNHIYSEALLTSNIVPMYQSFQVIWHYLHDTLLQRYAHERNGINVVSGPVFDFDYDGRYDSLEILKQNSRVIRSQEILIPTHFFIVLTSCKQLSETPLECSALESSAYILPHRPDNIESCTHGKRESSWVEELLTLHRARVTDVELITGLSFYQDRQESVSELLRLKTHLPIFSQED
Protocol: Selected compounds of Table 1, Table 2 and other derivatives were prepared and assessed in an ENPP1 activity assay using thymidine monophosphate paranitrophenol (TMP-pNP) as a substrate. Enzyme reactions were prepared with TMP-pNP (2 μM), 5-fold dilutions of ENPP1 inhibitor, and purified recombinant mouse ENPP1 (0.5 nM) in 100 mM Tris, 150 mM NaCl, 2 mM CaCl2, 200 μM ZnCl2, pH 7.5 at room temperature. Reaction progress was monitored by measuring absorbance at 400 nm of paranitrophenolate produced by the reaction for 20 minutes.

[4] = biological target: T1, purified recombinant mouse ENPP1; assay: ENPP1 enzyme activity assay using 32P cGAMP as a substrate (TLC); type: biochemical
Protocol: Compounds were also assessed in an ENPP1 enzyme activity assay using ^32P cGAMP as a substrate. Radiolabeled ^32P cGAMP was synthesized by incubating unlabeled ATP (1 mM) and GTP (1 mM) doped with ^32P-ATP with 2 μM purified recombinant porcine cGAS in 20 mM Tris pH 7.5, 2 mM MgCl2, 100 μg/mL herring testes DNA) overnight at room temperature, and the remaining nucleotide starting materials were degraded with alkaline phosphatase for 4 h at 37° C. The probe ^32P-cGAMP (5 μM) was incubated with purified recombinant mouse ENPP1 (20 nM) or whole cell lysates in 100 mM Tris, 150 mM NaCl, 2 mM CaCl2, 200 μM ZnCl2, pH 7.5 at room temperature for 5 hours. To generate enzyme inhibition curves, 5-fold dilutions of ENPP1 inhibitor were included in the reaction. […] Plates were exposed on a phosphor screen (Molecular Dynamics) and imaged on a Typhoon 9400 and the ^32P signal was quantified using ImageJ.

[5] = system: 4T1 tumor; assay: 4T1 tumor model: IR with compound 1, cGAMP and/or anti-CTLA-4, tumor volume and survival; type: in vivo, mouse; conditions: 20 Gy IR, single agent intratumorally on day 2, 4 and 7 after IR (100 μL of 100 μM compound 1 or 10 μg cGAMP)
Protocol: Tumor volumes were recorded every other day.

[6] = 32P-cGAMP 5 μM, mouse ENPP1 20 nM, pH 7.5, room temperature, 5 hours, read-out: IC50 values (cGAMP; μM)

IC50 [3] [µM] | Structure (SMILES) | other results
0.05 to 0.5 | Nc1ccc2c(N3CCC(CCP(=O)(O)O)CC3)ncnc2c1 [Compound 30] | 
0.05 to 0.5 | COc1cc2ccnc(N3CCC(CCP(=O)(O)O)CC3)c2cc1OC [Compound 38] | 
> 5 | COc1ccc2c(N3CCN(CCP(=O)(O)O)CC3)ncnc2c1 [Compound 42] | 
0.05 to 0.5 | COc1cc2ncnc(N3CCC(COP(=O)(O)O)CC3)c2cc1OC [Compound 60] | 
0.5 to 5 | COc1cc2ncnc(N3CCC(CC(=O)NO)CC3)c2cc1OC [Compound 61] | 
> 5 | O=P(O)(O)CCC1CCN(c2ncnc3nc[nH]c23)CC1 [Compound 68] | 
0.5 to 5 | O=P(O)(O)CCC1CCN(c2ncnc3cccc(F)c23)CC1 [Compound 70] | 
0.05 to 0.5 | COc1cc2nccc(N3CCC(CCP(=O)(O)O)CC3)c2cc1OC [Compound 71] | 
> 5 | CNC(=O)NCC1CCN(c2ncnc3cc(OC)c(OC)cc23)CC1 [Compound 73] | 
0.05 to 0.5 | COc1cc2ncnc(N3CCN(C(=O)CP(=O)(O)O)CC3)c2cc1OC [Compound 75] | IC50 [4, 6]: 0.5 to 5 µM
< 0.005 | COc1cccc2c(N3CCC(CCP(=O)(O)O)CC3)ncnc12 [Compound 76] | IC50 [4]: 0.005 to 0.05 µM
0.005 to 0.05 | COc1cc2ncnc([C@H]3CC[C@@H](CCP(=O)(O)O)CC3)c2cc1OC [Compound 81] | 
0.005 to 0.05 | COc1cc2ncnc([C@H]3CC[C@H](CCP(=O)(O)O)CC3)c2cc1OC [Compound 82] | 
0.05 to 0.5 | O=P(O)(O)CCC1CCN(c2ncnc3cc(Cl)ccc23)CC1 [Compound 84] | 
< 0.005 | COc1cccc2c(N3CCC(COP(=O)(O)O)CC3)ncnc12 [Compound 86] | 
0.05 to 0.5 | COc1cc2ncnc(N3CCC(CCB(O)O)CC3)c2cc1OC [Compound 87] | 
0.05 to 0.5 | COc1cc2ncnc(N3CCC(CP(=O)(O)O)CC3)c2cc1OC [Compound 88] | 
0.05 to 0.5 | Cc1nccn1-c1cc(N2CCC(CCP(=O)(O)O)CC2)ncn1 [Compound 93] | 
0.05 to 0.5 | Cc1cnc(C)n1-c1cc(N2CCN(CCP(=O)(O)O)CC2)ncn1 [Compound 103] | 

The next lines start with the compound.

Structure (SMILES) | IC50 [3] [µM] | other results
COc1cc2ncnc(N3CCC(CCP(=O)(O)O)CC3)c2cc1OC [Compound 1] |  | tumor associated CD11c+ population ([1]; tumors pretreated with 20 Gy IR): increased the tumor associated CD11c^+ population; tumor-associated leukocyte compositions ([1]; without IR, vs PBS control): did not change tumor-associated leukocyte compositions compared to the PBS control; extracellular cGAMP levels ([2]; 293T cGAS ENPP1low cells with transient overexpression of ENPP1): rescued extracellular cGAMP levels; CD14+ IFNB1 expression ([2]; supernatant of ENPP1-overexpressing 293T cGAS ENPP1low cells transferred to CD14+ monocytes): induced CD14^+ IFNB1 expression
O=P(O)(O)CCC1CCN(c2ncnc3cc(O)ccc23)CC1 [Compound 5] | 0.05 to 0.5 | 
COc1cc(OC)c2ncnc(N3CCC(CCP(=O)(O)O)CC3)c2c1 [Compound 7] | 0.05 to 0.5 | 
COc1ccc2c(N3CCC(CCP(=O)(O)O)CC3)ncnc2c1 [Compound 10] | < 0.005 | IC50 [4, 6]: 0.05 to 0.5 µM
CC(C)Oc1ccc2c(N3CCC(CCP(=O)(O)O)CC3)ncnc2c1 [Compound 11] | > 5 | 
COc1ccc2c(N3CCC(CCP(=O)(O)O)CC3)nc(C)nc2c1 [Compound 12] | 0.005 to 0.05 | IC50 [4, 6]: 0.05 to 0.5 µM
O=P(O)(O)CCC1CCN(c2ncnc3cc4c(cc23)OCCO4)CC1 [Compound 13] | 0.5 to 5 | 
COc1ccc(OC)c2c(N3CCC(CCP(=O)(O)O)CC3)ncnc12 [Compound 16] | 0.5 to 5 | 
COc1ccc2c(N3CCC(CCP(=O)(O)O)CC3)nc(/C=C/c3cccnc3)nc2c1 [Compound 18] | < 0.005 | IC50 [4, 6]: 0.05 to 0.5 µM
COc1ccc2ncnc(N3CCC(CCP(=O)(O)O)CC3)c2c1 [Compound 19] | 0.005 to 0.05 | 
COc1ccc2c(N3CCC(CCP(=O)(O)O)CC3)ncnc2c1OC [Compound 22] | 0.05 to 0.5 | 
O=P(O)(O)CCC1CCN(c2ncnc3ccc(O)cc23)CC1 [Compound 23] | 0.5 to 5 | 
COc1ccc2c(N3CCC(CCP(=O)(O)O)CC3)ncnc2c1OC [Compound 25] | 0.005 to 0.05 | 
COc1cc2ncnc(N3CCC(COP(O)(O)=S)CC3)c2cc1OC [Compound 67] | 0.005 to 0.05 | 
COc1cc2ncnc(N3CCC(CCP(O)(O)=S)CC3)c2cc1OC [Compound 83] | 0.05 to 0.5 | 
COc1cccc2c(N3CCC(CCP(O)(O)=S)CC3)ncnc12 [Compound 92] | < 0.005 | 
Nc1nc2c(ncn2[C@@H]2O[C@@H]3COP(=O)(O)O[C@H]4[C@@H](O)[C@H](n5cnc6c(N)ncnc65)O[C@@H]4COP(=O)(O)O[C@@H]2[C@@H]3O)c(=O)[nH]1 [cGAMP, cyclic guanosine monophosphate-adenosine monophosphate] |  | tumor shrinkage effect over IR treatment [5]: had no effect over IR treatment
